Data taken from ChEMBL document CHEMBL1139018, “Acetylenic TACE inhibitors. Part 3: Thiomorpholine sulfonamide hydroxamates” (Bioorg Med Chem Lett, 2006).

Experiments:
[1] = target: T1, Disintegrin and metalloproteinase domain-containing protein 17 (Homo sapiens, UniProt P78536); assay: Inhibition of TACE
Interstitial collagenase = target: T2, Interstitial collagenase (Homo sapiens, UniProt P03956); assay: Inhibition of MMP1
T2 sequence (P03956 whole entry): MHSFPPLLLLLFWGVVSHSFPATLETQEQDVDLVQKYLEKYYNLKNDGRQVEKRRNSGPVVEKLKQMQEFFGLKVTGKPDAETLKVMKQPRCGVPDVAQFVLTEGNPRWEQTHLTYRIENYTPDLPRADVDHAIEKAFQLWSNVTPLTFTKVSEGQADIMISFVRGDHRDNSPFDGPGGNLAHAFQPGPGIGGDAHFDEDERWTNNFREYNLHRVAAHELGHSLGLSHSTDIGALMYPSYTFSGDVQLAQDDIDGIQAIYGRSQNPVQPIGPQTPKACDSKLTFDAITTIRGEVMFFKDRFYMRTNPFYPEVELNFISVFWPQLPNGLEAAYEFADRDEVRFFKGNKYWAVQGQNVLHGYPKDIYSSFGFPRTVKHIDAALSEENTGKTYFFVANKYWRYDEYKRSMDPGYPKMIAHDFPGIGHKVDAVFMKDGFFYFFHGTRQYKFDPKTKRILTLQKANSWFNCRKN

Collagenase 3 = Collagenase 3 (Homo sapiens, UniProt P45452); assay: Inhibition of MMP13
[2] = target: T1, Disintegrin and metalloproteinase domain-containing protein 17; assay: Inhibition of LPS-stimulated TNF production in THP cells at 3 uM; assay type: functional, cell-based
[3] = target: T1, Disintegrin and metalloproteinase domain-containing protein 17; assay: Inhibition of LPS-stimulated TNF production in THP cells at 1 uM; assay type: functional, cell-based
Mus musculus [4] = assay: Inhibition of LPS-stimulated TNFalpha production in mouse at 50 mg/kg, po; assay type: functional
[5] = Permeability across Caco-2 cell membrane; assay type: ADME, cell-based; details: human
Mus musculus [6] = organism: Mus musculus; assay: Inhibition of LPS-stimulated TNFalpha production in mouse; assay type: functional
[7] = Bioavailability in mouse at 10 mg/kg; assay type: ADME, organism-based; details: in vivo
[8] = Bioavailability in rat at 10 mg/kg; assay type: ADME, organism-based; details: in vivo
[9] = Bioavailability in dog at 10 mg/kg; assay type: ADME, organism-based, Canis lupus familiaris; details: in vivo

T1 sequence (P78536 whole entry, the tested form may be a part): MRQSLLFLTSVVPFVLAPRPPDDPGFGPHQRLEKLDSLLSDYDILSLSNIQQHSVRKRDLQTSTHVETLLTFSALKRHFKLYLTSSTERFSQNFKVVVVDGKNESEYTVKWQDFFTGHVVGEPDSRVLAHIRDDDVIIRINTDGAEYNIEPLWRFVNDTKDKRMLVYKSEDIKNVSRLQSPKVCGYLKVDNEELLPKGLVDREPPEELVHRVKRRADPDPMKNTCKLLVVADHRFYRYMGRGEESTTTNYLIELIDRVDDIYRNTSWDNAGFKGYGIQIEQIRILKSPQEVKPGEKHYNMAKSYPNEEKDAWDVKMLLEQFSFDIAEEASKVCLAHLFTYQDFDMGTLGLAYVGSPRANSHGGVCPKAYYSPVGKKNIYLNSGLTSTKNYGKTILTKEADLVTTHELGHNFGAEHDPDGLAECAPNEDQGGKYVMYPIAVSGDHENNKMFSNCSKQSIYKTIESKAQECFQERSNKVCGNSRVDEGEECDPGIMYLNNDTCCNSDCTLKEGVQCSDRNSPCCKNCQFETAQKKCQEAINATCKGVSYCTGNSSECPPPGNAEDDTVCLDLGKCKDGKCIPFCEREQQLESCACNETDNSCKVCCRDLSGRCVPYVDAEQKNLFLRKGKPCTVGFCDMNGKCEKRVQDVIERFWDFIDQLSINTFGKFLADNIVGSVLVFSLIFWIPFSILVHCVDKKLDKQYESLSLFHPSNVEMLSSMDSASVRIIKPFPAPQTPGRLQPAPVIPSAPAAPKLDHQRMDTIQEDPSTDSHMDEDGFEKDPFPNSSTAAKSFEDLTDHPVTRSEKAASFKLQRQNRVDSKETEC

SMILES | IC50 [1] | IC50 (Interstitial collagenase) | IC50 (Collagenase 3) | inhibition [2] | inhibition [3] | inhibition in vivo at 50 mg/kg (Mus musculus [4]) | IC50 [3] | Papp [5] | ED50 (Mus musculus [6]) | bioavailability [7] | bioavailability [8] | bioavailability [9]
CC#CCOc1ccc(S(=O)(=O)N2C[C@H](CCO)SC(C)(C)[C@@H]2C(=O)NO)cc1 | 0.015 µM | 0.021 µM | 0.023 µM | 90% | 74% | ≥ 95% | – | – | – | – | – | –
CC1(C)SCCN(S(=O)(=O)c2ccc(OCC#CCO)cc2)[C@H]1C(=O)NO | – | – | 0.008 µM | 95% | 89% | ≥ 95% | 0.14 µM | 22 nm/s | 5 mg/kg | 24% | 8% | 36%
CCCCC#CCOc1ccc(S(=O)(=O)N2CCSC(C)(C)[C@@H]2C(=O)NO)cc1 | 0.023 µM | 0.029 µM | 0.007 µM | 82% | 48% | – | – | – | – | – | – | –
CCCCOc1ccc(S(=O)(=O)N2CCSC(C)(C)[C@@H]2C(=O)NO)cc1 | 0.042 µM | 0.007 µM | 0.009 µM | 38% | 11% | – | – | – | – | – | – | –
CC#CCOc1ccc(S(=O)(=O)N2C[C@H](CC(N)=O)SC(C)(C)[C@@H]2C(=O)NO)cc1 | – | – | – | 91% | 76% | – | – | – | – | – | – | –
CC#CCOc1ccc(S(=O)(=O)N2C[C@H](CNS(C)(=O)=O)SC(C)(C)[C@@H]2C(=O)NO)cc1 | 0.011 µM | 0.019 µM | 0.014 µM | 91% | 81% | – | – | – | – | – | – | –
C/C=C/COc1ccc(S(=O)(=O)N2CCSC(C)(C)[C@@H]2C(=O)NO)cc1 | 0.035 µM | 0.007 µM | 0.002 µM | 80% | 50% | – | – | – | – | – | – | –
CC#CCOc1ccc(S(=O)(=O)N2C[C@H](CC(=O)O)SC(C)(C)[C@@H]2C(=O)NO)cc1 | – | – | 0.007 µM | 89% | 73% | – | – | – | – | – | – | –
CC(C)(C)OC(=O)NCC#CCOc1ccc(S(=O)(=O)N2CCSC(C)(C)[C@@H]2C(=O)NO)cc1 | 0.074 µM | 0.026 µM | 0.004 µM | 79% | 53% | – | – | – | – | – | – | –
CC(C)(C)OC(=O)NCCC#CCOc1ccc(S(=O)(=O)N2CCSC(C)(C)[C@@H]2C(=O)NO)cc1 | 0.112 µM | 0.3 µM | 0.007 µM | 37% | 14% | – | – | – | – | – | – | –
CC#CCOc1ccc(S(=O)(=O)N2C[C@H](CCN(CC)CC)SC(C)(C)[C@@H]2C(=O)NO)cc1 | 0.143 µM | 0.033 µM | 0.048 µM | 87% | 67% | ≥ 95% | – | – | – | – | – | –
CC1(C)SCCN(S(=O)(=O)c2ccc(OCC#CCCN)cc2)[C@H]1C(=O)NO | 0.138 µM | 1.05 µM | 0.027 µM | 4% | 0% | – | – | – | – | – | – | –
CC(C)(C)OC(=O)NCCCCC#CCOc1ccc(S(=O)(=O)N2CCSC(C)(C)[C@@H]2C(=O)NO)cc1 | – | – | 0.004 µM | 70% | 40% | – | – | – | – | – | – | –
CC1(C)SCCN(S(=O)(=O)c2ccc(OCC#CCCO)cc2)[C@H]1C(=O)NO | 0.062 µM | 0.035 µM | 0.014 µM | 57% | 25% | – | – | – | – | – | – | –
CC1(C)SCCN(S(=O)(=O)c2ccc(OCC#CCN)cc2)[C@H]1C(=O)NO | – | 0.097 µM | 0.008 µM | 40% | 10% | – | – | – | – | – | – | –
C#CCCOc1ccc(S(=O)(=O)N2CCSC(C)(C)[C@@H]2C(=O)NO)cc1 | 0.032 µM | 0.002 µM | 0.001 µM | 64% | 36% | – | – | – | – | – | – | –
CC(C)(C)OC(=O)NCCCC#CCOc1ccc(S(=O)(=O)N2CCSC(C)(C)[C@@H]2C(=O)NO)cc1 | – | – | 0.002 µM | 27% | 5% | – | – | – | – | – | – | –
CC1(C)SCCN(S(=O)(=O)c2ccc(OCC#CCCCCN)cc2)[C@H]1C(=O)NO | – | – | 0.007 µM | 37% | 13% | – | – | – | – | – | – | –
C#CCCCOc1ccc(S(=O)(=O)N2CCSC(C)(C)[C@@H]2C(=O)NO)cc1 | 0.04 µM | 0.011 µM | 0.008 µM | 38% | 16% | – | – | – | – | – | – | –
C#CCOc1ccc(S(=O)(=O)N2CCSC(C)(C)[C@@H]2C(=O)NO)cc1 | – | 0.001 µM | 0.001 µM | 91% | 76% | – | – | – | – | – | – | –
CC1(C)SCCN(S(=O)(=O)c2ccc(OCC#CCCCCO)cc2)[C@H]1C(=O)NO | – | – | – | 77% | 52% | – | – | – | – | – | – | –
CC1(C)SCCN(S(=O)(=O)c2ccc(OCC#CCCCN)cc2)[C@H]1C(=O)NO | – | – | 0.009 µM | 22% | 0% | – | – | – | – | – | – | –
CC#CCOc1ccc(S(=O)(=O)N2C[C@H](CN)SC(C)(C)[C@@H]2C(=O)NO)cc1 | – | – | – | 94% | 78% | ≥ 95% | – | – | – | – | – | –
C#CC#CCOc1ccc(S(=O)(=O)N2CCSC(C)(C)[C@@H]2C(=O)NO)cc1 | – | 0.006 µM | – | 88% | 62% | – | – | – | – | – | – | –
CC1(C)SCCN(S(=O)(=O)c2ccc(OCC#CCCCO)cc2)[C@H]1C(=O)NO | 0.04 µM | 0.159 µM | 0.086 µM | 51% | 19% | – | – | – | – | – | – | –
CC#CCOc1ccc(S(=O)(=O)N2CCSC(C)(C)[C@@H]2C(=O)NO)cc1 | – | – | – | 94% | 87% | – | – | – | – | 71% | 5% | 0%
